Laboratory results taken from patent US5498601A, “Platelet aggregation-inhibiting peptides” (Nippon Steel Corporation, priority 1992, dated 1996).
Non-standard residues stand in square brackets, D forms with d. Residues, ends and D or L forms follow the SMILES beside them. No end group written: not given here. *: point of attachment. pGlu = O=C1CC[C@@H](C(=O)O)N1; Pip = O=C(O)[C@@H]1CCCCN1; X2 = O=C(c1cc(O)nc(O)n1)*; Aze = O=C(O)[C@@H]1CCN1

Key:
[1] = stability of the synthetic peptides in human plasma; format: in vitro ADME; settings: 37° C., peptide 100 μM; for half-life at 100 μM: male, read-out: Half-Time of the synthetic peptides in plasma
Protocol: The blood sample thus prepared was examined for the stability in whole blood. […] Then, the supernatant was collected to obtain a plasma fraction. This plasma fraction was examined for the stability in plasma.
The whole blood or plasma (225 μl) was placed in a test tube and heated to 37° C. Each of the synthetic peptides was dissolved in saline (pH 7.4) to prepare a solution at a concentration of 1 mM. Each of the synthetic peptide solutions was added to the whole blood or plasma in an amount of 25 μl (final concentration: 100 μM) and incubated for a certain period of time. After the incubation, the solution was cooled with ice to stop the degradation reaction. The plasma was stored frozen at -20° C. without performing any treatments. The whole blood was centrifuged at 2000 g for 5 minutes at 4° C. and the supernatant was stored frozen.
The samples were analyzed by reversed phase HPLC. The peak area of each synthetic peptide was calculated and the stability in the whole blood or plasma was evaluated from the change of the peak area.

in vivo = test: in vivo; parameters: species or system MCH (ICR) strain mice; settings: male, MCH (ICR), mouse, iv; for half-life: Half-Time of the synthetic peptides in mice
Protocol: For the evaluation of stability, MCH (ICR) strain mice (male, body weight: 28-32 g) were used. […] After a certain period of time, blood was collected from the abdominal vein using an injection syringe treated with heparin. Immediately after the collection, the blood was centrifuged (1500 g, 3 minutes) at 4° C. and the supernatant was stored frozen at -20° C. Each of the supernatants was analyzed by reversed phase HPLC in the same manner as that in the aforementioned evaluation of stability in plasma.

platelet aggregation = test: intravenous injection in beagle, platelet aggregation of PRP measured over time; format: in vivo; settings: 5 mg/Kg i.v.
Protocol: (1) In order to examine how long the peptides of the present invention and heparin, which is used as an anticoagulant at present, can remain without being broken down or eliminated and how long the activity of them persists, intravenous injection experiments were carried out using beagles.
Since the peptides of the present invention have the platelet aggregation-inhibiting activity, the amount of the peptides which remain in the body of an organism without being broken down can be determined by collecting blood and measuring the platelet aggregation-inhibiting activity of the blood at given intervals of time. Thus, the in vivo stability of the peptides can be estimated.
In the experiments, a male beagle having a body weight of 10 Kg was used. […] The collected blood was centrifuged at 1000 rpm for 10 minutes to prepare platelet-rich plasma (PRP). The reminder was further centrifuged at 3000 rpm for 15 minutes to prepare platelet-poor plasma (PPP).
The platelet aggregation ability was determined by measuring the platelet aggregation of the PRP with collagen and ADP using an aggregometer. In the measurement, ADP was added at a final concentration of 7.5 and 10.0 μM and collagen was added at a final concentration of 7.5 and 10.0 μg/ml.

human platelets = test: protection of human platelet fraction during storage; settings: platelet fraction, enzymes present in plasma
Protocol: Immediately after the blood collection, the syringe was stirred gently to mix the blood with the sodium citrate solution. The mixed blood was centrifuged (1100 rpm, 250 g) at room temperature for 15 minutes and the rotation was stopped without applying the brake. Then, the supernatant was collected with a pipette to obtain a platelet fraction. The remaining blood was further centrifuged (3000 rpm, 1000 g). The supernatant was collected to obtain platelet-poor plasma and stored.
The platelet fraction was placed in a polypropylene test tube, which was capped with a membrane filter to ensure breathability. Then, the test tube was placed on a shaker and stored at room temperature while shaking through vibrational amplitude of 20 cm at a frequency of 2 Hz. All the operations were performed under aseptic conditions to prevent the proliferation of bacteria during the storage.
After the storage for a given period of time, an aliquot of the platelet fraction was sampled and the number of platelets was measured. Prostaglandin E1 (Sigma Co.) was added to give a final concentration of 20 μg/ml and centrifuged at 750 g for 10 minutes. The supernatant was removed and the remainder was washed twice with HEPES-Tyrode's buffer containing prostaglandin E1 to remove the protected peptide. Finally, the platelets were suspended in preliminarily stored platelet-poor plasma. After the incubation for a given period of time, the aggregation ability of the platelets was determined by the method described above.

blood coagulation = test: intravenous heparin in beagle, prothrombin time and activated partial thromboplastin time; format: in vivo; settings: 200 U/Kg i.v.
Protocol: (2) Heparin, currently used as an anticoagulant, was used as a comparison with the peptides of the present invention.
Therefore, the in vivo stability of heparin was estimated by measuring the time-dependent change in the anticoagulation action which is the main action of heparin.
In the experiments, haparin as dissolved in saline was injected into the vein and blood was collected at given intervals of time to prepare PPP by the same method as that described in (1).
In the measurement of the anticoagulation action, the prepared PPP was used to measure prothrombin time, which is an indicator of blood coagulation activity in vitro, and activated partial thromboplastin time according to a conventional method. Each measurement was conducted under preincubation conditions at 37° C. for 3 minutes using AMELUNG KC-10A (Baxtor CO.). The rate of the disappearance of heparin from the body can be estimated by measuring the prolongations of the prothrombin time and the activated partial thromboplastin time (i.e., the prolongation of time up to coagulation) after the injection.

Row | half-life at 100 μM [1] [min] | half-life (in vivo) [min] | Half-Time of the synthetic peptides in plasma [1] | Compound | also measured
1 | 49 | 3.3 | – | N=C(N)NCCC[C@H](NC(=O)[C@H](CO)NC(=O)[C@@H]1CCN1)C(=O)NCC(=O)N[C@@H](CC(=O)O)C(=O)N[C@@H](Cc1c[nH]c2ccccc12)C(=O)O [Example 17, (L-2-Azetidinecarboxyl)--Ser--Arg--Gly--Asp--Trp--OH] (H-[Aze]SRGDW-OH) | –
2 | ≥ 120 | 3.3 | at least 120 minutes | N=C(N)NCCC[C@H](NC(=O)[C@H](CO)NC(=O)[C@@H]1CCCCN1)C(=O)NCC(=O)N[C@@H](CC(=O)O)C(=O)N[C@@H](Cc1c[nH]c2ccccc12)C(=O)O [Example 18, (L-Pipecolinyl)--Ser--Arg--Gly--Asp--Trp--OH] (H-[Pip]SRGDW-OH) | –
3 | 74.5 | ≤ 2 | 74.5 min | PSRGDW-OH [Example 16, Pro--Ser--Arg--Gly--Asp--Trp--OH] | –

Continued, compound first:

Row | Compound | half-life at 100 μM [1] [min] | half-life (in vivo) [min] | Half-Time of the synthetic peptides in plasma [1] | also measured
4 | N=C(N)NCCC[C@H](NC(=O)[C@H](CO)NC(=O)c1cc(O)nc(O)n1)C(=O)NCC(=O)N[C@@H](CC(=O)O)C(=O)N[C@@H](Cc1c[nH]c2ccccc12)C(=O)O [Example 9, Orotyl--Ser--Arg--Gly--Asp--Trp--OH] (X2-SRGDW-OH) | ≥ 240 | 10.1 | – | Half-Time of the synthetic peptides in mice (in vivo): 6.9 min; time within which the peptide was broken down in the body or eliminated from the kidney (platelet aggregation): ≤ 60 min
5 | N=C(N)NCCC[C@H](NC(=O)[C@H](CO)NC(=O)[C@@H]1CCC(=O)N1)C(=O)NCC(=O)N[C@@H](CC(=O)O)C(=O)N[C@@H](Cc1c[nH]c2ccccc12)C(=O)O [Example 11, Pyroglutamyl--Ser--Arg--Gly--Asp--Trp--OH] ([pGlu]SRGDW-OH) | ≥ 240 | – | – | –
6 | N=C(N)NCCC[C@H](N)C(=O)NCC(=O)N[C@@H](CC(=O)O)C(=O)N[C@@H](Cc1ccccc1)C(=O)O [RGDF, reference compound] (H-RGDF-OH) | – | – | – | stability when added to a platelet fraction (human platelets): broken down in several hours
7 | WSRGDW-OH [Example 1, Trp--Ser--Arg--Gly--Asp--Trp--OH] | 11.5 | ≤ 2 | 11.5 min | –
8 | heparin | – | – | – | activated partial thromboplastin time (blood coagulation): The same results were obtained; time to completely recover prothrombin time to the level before injection (blood coagulation): 2 to 3 h
